These results are taken from patent publication US12245589B2, “Omega-alicyclic tunicamycins and analogs” (priority 2022, dated 2025).

In data set [1] the test system is Mycobacterium tuberculosis (Mtb). As to conditions: compared with natural tunicamycin; cited from earlier work.
In data set [2] the test system is Mycobacterium avium subsp. paratuberculosis (MAP) strain K-10. As to the kind of experiment: Antibiotic disc assay on agar plates, MAP strain K-10. As to conditions: antibiotic discs on the plate for 13 days, FIG. 15C.
The test system of data set [3] is Mycobacterium smegmatis. Nature of the data set: Microtiter plate bioassay, mycobacterial growth inhibition (MIC). As to conditions: M. smegmatis grown in TYG for 6 days at 37° C., FIG. 16. Format: cell-based. Here is the method: (§1) In each plate, left two columns are treated with DMSO, center two columns are treated with tunicamycin; right two panels are treated with TunR2. The concentration in μg/mL is indicated on the right. Arrows show the concentration at which there is mycobacterial growth inhibition (MIC), or biofilm formation is blocked (MBFC).
The inventors have shown that tunicamycins (including the modified TunR1, TunR2, and OAT-type tunicamycins) have potent antimycobacterial activity (for example, MIC 0.5 μg·mL^−1 for TunR2 against M. smegmatis, as shown in FIG. 16.
(§2) Tunicamycins are known to inhibit the biosynthesis of bacterial cell wall, for example by blocking the peptidoglycan and teichoic layers. The Mycobacterium genus is characterized by unusual and complex cell walls composed of three distinct layers, peptidoglycan (PG), arabinogalactan (AG) and mycolic acids (MA), which are well characterized targets for antimycobacterial drugs (K A Abrahams & G S Besra, 2018, “Mycobacterial cell wall biosynthesis: a multifaceted antibiotic target,” Parasitology 145: 116-133). The MA and AG are also components of mycobacterial biofilms, an extracellular matrix with various pathogenic functions.

The subject of data set [4] is Mycobacterium smegmatis biofilm. As to the kind of experiment: Microtiter plate bioassay, biofilm formation (MBFC). In kind it is cell-based. As to conditions: M. smegmatis grown in TYG for 6 days at 37° C., FIG. 16. The procedure:
as §1, §2

Data set [5] deals with cultured mammalian cell lines (HEK293, HepG2, Raji cells). The following applies: cell line not given; cited from earlier work.

“Also recorded” adds a separate entry of the source. Some results are limits rather than exact numbers.

In the case of `CCCCCCCCC(=O)N[C@H]1[C@H](O[C@H]2O[C@H](CO)[C@@H](O)[C@H](O)[C@H]2NC(=O)CCCCCCCC)O[C@H](C[C@@H](O)[C@H]2O[C@@H](n3ccc(=O)[nH]c3=O)[C@H](O)[C@@H]2O)[C@H](O)[C@@H]1O` [Tun-9,9], in data set [1], the “potency relative to natural tunicamycin against Mtb” value is on record as 5 times.

Consider `CC1(C)S[C@@H]2[C@H](NC(=O)C(C(=O)O)c3ccccc3)C(=O)N2[C@H]1C(=O)O` (stereo partly shown) [carbenicillin], for which the “activity on MAP strain K-10” value in data set [2] is “resistant”; in data set [2] (listed as Carbenicillin) it was “low inhibitions at high concentrations”.

Consider `CO/N=C(\C(=O)N[C@@H]1C(=O)N2C(C(=O)[O-])=C(C[n+]3cccc4c3CCCC4)CS[C@H]12)c1csc(N)n1` [cefquinome], for which, in data set [2], the “activity on MAP strain K-10” value was “resistant; also recorded: low inhibitions at high concentrations”.

As to `CCCCCCCCC1=C(CCCCCCCC(=O)O)C1` [sterulic acid], in data set [2], the “activity on MAP strain K-10” value is recorded as “resistant”.

On to `CC(C)CCOc1ccc(NC(=S)Nc2ccc(OCCC(C)C)cc2)cc1` [thiocarlide], for which the “activity on MAP strain K-10” value in data set [2] is listed as “resistant”.

For the molecule tunicamycin, the “MIC (mycobacterial growth inhibition)” value in data set [3] was 2 µg/mL. Also, the “Minimal Biofilm Formation Concentration, MBFC” value in data set [4] was 1 µg/mL. Further, the LD50 in data set [5] is above 400 µg/mL. Besides, the “activity on MAP strain K-10” value in data set [2] is “perform well”.
